Data: US20230365608A1 (priority 2019, published 2023)

Assays:
[1] = test system: Influenza strains A/WSN/33 (H1N1); test: Influenza A/WSN/33 (H1N1) antiviral assay in A549 cells (MUNANA neuraminidase readout); assay type: cell-based, Influenza A virus (H1N1); human lung carcinoma A549 cells; settings: Influenza A virus, compound 24 h before infection, 250 IU/well, 20 h infection
Description: (§1) EC50 [uM] as Measured Using Two Cell Lines: WSN/33 (H1N1) A549 and MDCK
1. Human lung carcinoma A549 cells (ATCC, Manassas, VA) were plated at a density of 5×10^4 cells/ml (5×10^3 cells/well) in maintenance media (Ham's F12 media supplemented with 10% FBS, 1% penicillin/streptomycin, 1% HEPES, 1% Glutamine and 1% non-essential amino acids (all Mediatech, Manassas, VA) in 96-well plates. After 24 hours, serially diluted compounds in assay media (Ham's F12 supplemented with 0.3FBS, 1% penicillin/streptomycin, 1% HEPES, 1% Glutamine and 1% non-essential amino acids) were added to cells and incubated for an additional 24 hours. Cells were infected with 250 IU/well of Influenza strains A/WSN/33 (H1N1) (Virapur, San Diego CA) and incubated for 20 h at 37° C., 5% CO2. The cell culture supernatant was aspirated off and 50 μl 25 μM 2′-(4-Methylumbelliferyl)-a-D-N-acetylneuraminic acid (MUNANA, Sigma-Aldrich) dissolved in 33 mM MES, pH 6.5 (Emerald Biosystems, Bainbridge Island, WA) was added to the cells. After incubation for 45 min at 30° C., reactions were stopped by addition of 150 μL stop solution (100 mM glycine, pH 10.5, 25% ethanol, all Sigma-Aldrich). Fluorescence was measured with excitation and emission filters of 355 and 460 nm, respectively, on a Victor X3 multi-label plate reader (Perkin Elmer, Waltham, MA). Cytotoxicity of uninfected parallel cultures was determined by addition of 100 μL CellTiter-Glo® reagent (Promega, Madison, WI), and incubation for 10 min at room temperature. Luminescence was measured on a Victor X3 multi-label plate reader.

[2] = test system: Influenza strains A/WSN/33 (H1N1); test: Influenza A/WSN/33 (H1N1) antiviral assay in MDCK cells (MUNANA neuraminidase readout); assay type: cell-based; settings: Influenza A virus, in Canis lupus familiaris, compound 24 h before infection, 250 IU/well, 20 h infection
Description: as §1
2. Alternatively, Madin-Darby canine kidney epithelial cells (MDCK, ATCC), were plated at a density of 7.5×10^4 cells/ml (7.5×10^3 cells/well) in maintenance media (DMEM with same supplements as above) in 96-well plates. After 24 hours, serially diluted compounds in assay media (MEM supplemented with 0.3FBS, 1% penicillin/streptomycin, 1% HEPES, 1% Glutamine and 1% non-essential amino acids) were added to cells and incubated for an additional 24 hours. Cells were infected with 250 IU/well of Influenza strains A/WSN/33 (H1N1) and incubated for 20 h at 37° C., 5% CO2. The cell culture supernatant was aspirated off and 50 μL 25 μM 2′-(4-Methylumbelliferyl)-a-D-N-acetyl neuraminic acid (MUNANA, Sigma-Aldrich) dissolved in 33 mM MES, pH 6.5 (Emerald Biosystems, Bainbridge Island, WA) was added to the cells. After incubation for 45 min at 30° C., reactions were stopped by addition of 150 μl stop solution (100 mM glycine, pH 10.5, 25% ethanol, all Sigma-Aldrich). Fluorescence was measured with excitation and emission filters of 355 and 460 nm, respectively, on a Victor X3 multi-label plate reader (Perkin Elmer, Waltham, MA). Cytotoxicity of uninfected parallel cultures was determined by addition of 100 μL CellTiter-Glo® reagent (Promega, Madison, WI), and incubation for 10 min at room temperature. Luminescence was measured on a Victor X3 multi-label plate reader.

Row | Structure (SMILES) | EC50 [1] [µM] | EC50 [2] [µM]
1 | NC(=O)c1nsc([C@@H]2O[C@H](CO)[C@@H](O)[C@H]2O)n1 [Example 1, 5-((2R,3R,4S,5R)-3,4-Dihydroxy-5-(hydroxymethyl)tetrahydrofuran-2-yl)-1,2,4-thiadiazole-3-carboxamide] | 1.35 | –
2 | NC(=O)c1cc([C@@H]2O[C@H](CO)[C@@H](O)[C@H]2O)sn1 [Example 2, 5-((2R,3R,4S,5R)-3,4-Dihydroxy-5-(hydroxymethyl)tetrahydrofuran-2-yl)isothiazole-3-carboxamide] | 54.7 | 0.32
3 | NC(=O)c1nc([C@@H]2O[C@H](CO)[C@@H](O)[C@H]2O)sc1F [Example 3, 2-((2R,3R,4S,5R)-3,4-Dihydroxy-5-(hydroxymethyl)tetrahydrofuran-2-yl)-5-fluorothiazole-4-carboxamide] | 40.7 | 10.1
4 | CC(C)C(=O)OC[C@H]1O[C@@H](c2nc(C(N)=O)ns2)[C@H](O)[C@@H]1O [Example 4, ((2R,3S,4R,5R)-5-(3-Carbamoyl-1,2,4-thiadiazol-5-yl)-3,4-dihydroxytetrahydrofuran-2-yl)methyl isobutyrate] | 15.1 | –
5 | CC(C)OC(=O)OCOP(=O)(OCOC(=O)OC(C)C)OC[C@H]1O[C@@H](c2nc(C(N)=O)ns2)[C@H](O)[C@@H]1O [Example 6] | 4.66 | 1.85
6 | CC(C)[C@H](N)C(=O)OC[C@H]1O[C@@H](c2nc(C(N)=O)ns2)[C@H](O)[C@@H]1O [Example 7, ((2R,3S,4R,5R)-5-(3-Carbamoyl-1,2,4-thiadiazol-5-yl)-3,4-dihydroxytetrahydrofuran-2-yl)methyl valinate] | 1.35 | –
